# Laboratory results published in US12084473B2, “β-D-2′-deoxy-2′-α-fluoro-2′-β-C-substituted-2-modified-N6-substituted purine nucleotides for HCV treatment” (Atea Pharmaceuticals, Inc., priority 2015, dated 2024).
# Where two headings read alike, the source gives them in different places.
# How the values were obtained:
# [1] = system: micro-patterned human hepatocyte co-cultures; assay: Human Hepatocyte Co-Cultures (HepatoPac): cytotoxicity and hepatocyte health; format: cell-based; conditions: for IC50: Homo sapiens, Hepatocyte
# Procedure: Cytotoxicity and hepatocyte health were assessed in triplicate by measuring ALT leakage, urea production, albumin secretion and cellular ATP contents in micro-patterned human hepatocyte co-cultures (HepatoPac®, Hepregen Corporation) prepared by seeding cryopreserved human hepatocytes (single donor) and 3T3 J2 mouse fibroblasts in microtiter plates according to procedures established by Hepregen. Culture media was replaced with fresh media containing TA, test article, (0, 1, 10 or 30 μM) every 2 or 3 days through day 16. […] Cellular ATP levels were measured on days 9 and 21. ATP signals in stromal-only control cultures (murine 3T3 fibroblasts) were subtracted from those of human HepatoPac co-cultures to obtain hepatocyte-specific effects. See, Table 4, 5 and 6 below.
# [2] = system: HCV genotype 1b luciferase reporter replicon; assay: microbe, parasite or virus in culture; format: cell-based
# Procedure: (§1) The plates were cultured for 24 hours prior to the addition of compounds. Six serial one half log dilutions of the test articles (high test concentration of 100.0 μM or high test concentration of 1.0 μM) and human interferon-alpha2b (high test 10.0 U/ml) were prepared in cell culture medium and added to the cultured cells in triplicate wells for each dilution. Six wells in the test plates received medium alone as an untreated control. Following 72 hours of culture in the presence of compound, one of the plates was used for the determination of cytotoxicity by staining with XTT and the other for antiviral efficacy by determination of luciferase reporter activity. Cytotoxicity and efficacy data were collected and imported into a customized Excel workbook for determination of the TC50 and EC50 values. […] The y-axis is the percent of virus control and the x-axis is the concentration of drug in μM. […] The y-axis is the percent of virus control and the x-axis is the concentration of drug in M.
# [3] = Cytotoxicity by XTT staining in replicon cells; conditions: human
# Procedure: as §1
# [4] = system: HCV genotype 1b luciferase reporter replicon; assay: microbe, parasite or virus in culture; format: cell-based; conditions: Hepatitis C virus, HuH-7-Luc/Neo-ET, 72 h, read-out: HCV Replicon EC50/EC95: EC50
# [5] = Hepatitis C virus; Huh-7 luc/neo ET cells, 72 hours, luciferase; read-out: HCV Replicon EC50/EC95: EC95
compound,measurement,setting,value
COc1nc(N)nc2c1ncn2[C@@H]1O[C@H](COP(=O)(N[C@@H](C)C(=O)OCC(C)(C)C)Oc2cccc3ccccc23)[C@@H](O)[C@@]1(C)O (stereo partly drawn) [INX-189],IC50,"[1]; 48 h, Table 5, Day 2, read-out: Effect on Albumin Secretion, 50% Inhibitory Concentration (IC50)",13.6 µM
same,IC50,"[1]; 48 h, Table 6, Day 2, read-out: Effect on Albumin Secretion, 50% Inhibitory Concentration (IC50)",> 30 µM
same,IC50,"[1]; 120 h, Table 5, Day 5, read-out: Effect on Albumin Secretion, 50% Inhibitory Concentration (IC50)",3.1 µM
same,IC50,"[1]; 120 h, Table 6, Day 5, read-out: Effect on Albumin Secretion, 50% Inhibitory Concentration (IC50)",4.2 µM
same,IC50,"[1]; 168 h, Table 5, Day 7, read-out: Effect on Albumin Secretion, 50% Inhibitory Concentration (IC50)",3.2 µM
same,IC50,"[1]; 168 h, Table 6, Day 7, read-out: Effect on Albumin Secretion, 50% Inhibitory Concentration (IC50)",1.8 µM
same,IC50,"[1]; 216 h, Day 9, read-out: Effect on Cellular ATP Concentrations, 50% Inhibitory Concentration (IC50)",8.1 µM
same,IC50,"[1]; 216 h, Table 5, Day 9, read-out: Effect on Albumin Secretion, 50% Inhibitory Concentration (IC50)",2.4 µM
same,IC50,"[1]; 216 h, Table 6, Day 9, read-out: Effect on Albumin Secretion, 50% Inhibitory Concentration (IC50)",1.8 µM
same,IC50,"[1]; 288 h, Table 6, Day 12, read-out: Effect on Albumin Secretion, 50% Inhibitory Concentration (IC50)",1.3 µM
same,IC50,"[1]; 384 h, Table 6, Day 16, read-out: Effect on Albumin Secretion, 50% Inhibitory Concentration (IC50)",< 1 µM
same,IC50,"[1]; 504 h, Day 21, read-out: Effect on Cellular ATP Concentrations, 50% Inhibitory Concentration (IC50)",0.1 µM
same,IC50,"[1]; 504 h, Table 6, Day 21, read-out: Effect on Albumin Secretion, 50% Inhibitory Concentration (IC50)",< 1 µM
same,cytotoxicity to human co-cultured hepatocytes (in words),[1]; text b588,highly cytotoxic
CNc1nc(N)nc2c1ncn2[C@@H]1OC(CO[P@](=O)(N[C@@H](C)C(=O)OC(C)C)Oc2ccccc2)[C@@H](O)[C@@]1(C)F (stereo partly drawn) [Compound 5-1],EC95,[2]; [5],0.282 µM
same,Fold increase in activity compared to parent nucleoside,[2]; Table 7,>280
same,CC50 at 72 h,[3],> 100 µM
same,EC50,[4],0.0551 µM
CCOc1nc(N)nc2c1ncn2[C@@H]1O[C@@H]2CO[P@](=O)(OC(C)C)O[C@H]2[C@@]1(C)F,EC95,[2]; [5],0.259 µM
same,CC50 at 72 h,[3],> 100 µM
same,EC50,[4],0.045 µM
"C#C[C@@]1(F)[C@H](O)C(COP(=O)(N[C@@H](C)C(=O)OC(C)C)Oc2ccccc2)O[C@H]1n1cnc2c(N(C)C)nc(N)nc21 (stereo partly drawn) [Compound 45, isopropyl ((((R,S)-(2R,3R,4R,5R)-5-(2-amino-6-dimethylamino-9H-purin-9-yl)-4-fluoro-3-hydroxy-4-ethynyltetrahydrofuran-2-yl)methoxy)-phenoxy-phosphoryl)-L-alaninate]",EC95,[2]; [5],0.876 µM
same,CC50 at 72 h,[3],0.68 µM
same,EC50,[4],0.16 µM
C#C[C@@]1(F)[C@H](O)[C@@H](CO)O[C@H]1n1cnc2c(N(C)C3CC3)nc(N)nc21 [Compound 43],EC95,[2]; [5],24.7 µM
same,CC50 at 72 h,[3],21.6 µM
same,EC50,[4],6.43 µM
"CCCN(C)c1nc(N)nc2c1ncn2[C@@H]1OC(COP(=O)(N[C@@H](C)C(=O)OC(C)C)Oc2ccccc2)[C@@H](O)[C@@]1(C)F (stereo partly drawn) [Compound 20, isopropyl ((((R,S)-(2R,3R,4R,5R)-5-(2-amino-6-(N-methyl-propylamino)-9H-purin-9-yl)-4-fluoro-3-hydroxy-4-methyltetrahydrofuran-2-yl)methoxy)-phenoxy-phosphoryl)-L-alaninate]",EC95,[2]; [5],0.315 µM
same,CC50 at 72 h,[3],> 100 µM
same,EC50,[4],0.073 µM
C#C[C@@]1(F)[C@H](O)[C@@H](CO)O[C@H]1n1cnc2c(N(C)C)nc(N)nc21 [Compound 41],EC95,[2]; [5],25.1 µM
same,CC50 at 72 h,[3],21.8 µM
same,EC50,[4],0.508 µM
CC(C)OC(=O)[C@H](C)NP(=O)(OCC1O[C@@H](n2cnc3c(N)nc(N)nc32)[C@](C)(F)[C@@H]1O)Oc1ccccc1 (stereo partly drawn),EC95,[2]; [5],9.04 µM
same,Fold increase in activity compared to parent nucleoside,[2]; Table 7,3
same,CC50 at 72 h,[3],> 100 µM
same,EC50,[4],2.1 µM
"C#C[C@@]1(F)[C@H](O)C(COP(=O)(N[C@@H](C)C(=O)OC(C)C)Oc2ccccc2)O[C@H]1n1cnc2c(NC)nc(N)nc21 (stereo partly drawn) [Compound 46, isopropyl ((((R,S)-(2R,3R,4R,5R)-5-(2-amino-6-methylamino-9H-purin-9-yl)-4-fluoro-3-hydroxy-4-ethynyltetrahydrofuran-2-yl)methoxy)-phenoxy-phosphoryl)-L-alaninate]",EC95,[2]; [5],0.961 µM
same,CC50 at 72 h,[3],> 100 µM
same,EC50,[4],0.224 µM
"CC(C)OC(=O)[C@H](C)NP(=O)(OCC1O[C@@H](n2cnc3c(N(C)C)nc(N)nc32)[C@](C)(F)[C@@H]1O)Oc1ccccc1 (mixture of isomers) [Compound 7, isopropyl ((((R,S)-(2R,3R,4R,5R)-5-(2-amino-6-(dimethylamino)-9H-purin-9-yl)-4-fluoro-3-hydroxy-4-methyltetrahydrofuran-2-yl)methoxy)-phenoxy-phosphoryl)-L-alaninate]",EC95,[2]; [5],0.071 µM
same,EC50,[2]; Hepatitis C virus; read-out: EC50 in a replicon assay,0.012 µM
same,Fold increase in activity compared to parent nucleoside,[2]; Table 7,>890
same,fold increase in activity (versus parent nucleoside),[2]; listed as stabilized phosphate prodrug (phosphoramidate) of β-D-2′-deoxy-2′-α-fluoro-2′-β-,"> 1,300"
same,fold increase in activity (versus parent nucleoside),[2]; listed as stabilized racemic phosphate prodrug (phosphoramidate) of β-D-2′-deoxy-2′-α-fluo,> 890
same,CC50 at 72 h,[3],> 100 µM
same,EC50,[4],0.0121 µM
"CNc1nc(NC(=O)C(C)C)nc2c1ncn2[C@@H]1OC(COP(=O)(N[C@@H](C)C(=O)OC(C)C)Oc2ccccc2)[C@@H](O)[C@@]1(C)F (stereo partly drawn) [Compound 16, isopropyl ((((R,S)-(2R,3R,4R,5R)-5-(2-isobutyramido-6-methylamino-9H-purin-9-yl)-4-fluoro-3-hydroxy-4-methyltetrahydrofuran-2-yl)methoxy)-phenoxy-phosphoryl)-L-alaninate]",EC95,[2]; [5],3.69 µM
same,CC50 at 72 h,[3],> 100 µM
same,EC50,[4],0.576 µM
"C#C[C@@]1(F)[C@H](O)C(COP(=O)(N[C@@H](C)C(=O)OC(C)C)Oc2ccccc2)O[C@H]1n1cnc2c(N(C)C3CC3)nc(N)nc21 (stereo partly drawn) [Compound 47, isopropyl ((((R,S)-(2R,3R,4R,5R)-5-(2-amino-6-(N-methylcyclopropylamino)-9H-purin-9-yl)-4-fluoro-3-hydroxy-4-ethynyltetrahydrofuran-2-yl)methoxy)-phenoxy-phosphoryl)-L-alaninate]",EC95,[2]; [5],1.72 µM
same,CC50 at 72 h,[3],1.68 µM
same,EC50,[4],0.338 µM
"CCN(C)c1nc(N)nc2c1ncn2[C@@H]1O[C@H](CO)[C@@H](O)[C@@]1(C)F [Compound 17, (2R,3R,4R,5R)-5-(2-amino-6-(N-methyl-ethylamino)-9H-purin-9-yl)-4-fluoro-2-(hydroxymethyl)-4-methyltetrahydrofuran-3-ol]",EC95,[2]; [5],65.4 µM
same,CC50 at 72 h,[3],> 100 µM
same,EC50,[4],11.5 µM
C[C@@]1(F)[C@H](O)C(CO)O[C@H]1n1cnc2c(N)nc(N)nc21 (stereo partly drawn),CC50 at 72 h,[3],> 100 µM
same,EC50,[4],6.7 µM
"CC(C)OC(=O)[C@H](C)NP(=O)(OCC1O[C@@H](n2cnc3c(N(C)C4CC4)nc(N)nc32)[C@](C)(F)[C@@H]1O)Oc1ccccc1 (stereo partly drawn) [Compound 9, isopropyl ((((R,S)-(2R,3R,4R,5R)-5-(2-amino-6-(N-methyl-cyclopropylamino)-9H-purin-9-yl)-4-fluoro-3-hydroxy-4-methyltetrahydrofuran-2-yl)methoxy)-phenoxy-phosphoryl)-L-alaninate]",EC50,"[2]; Hepatitis C virus, read-out: EC50 in a replicon assay",0.007 µM
same,EC95,[2]; [5],0.054 µM
same,Fold increase in activity compared to parent nucleoside,[2]; Table 7,>600
same,CC50 at 72 h,[3],> 100 µM
same,EC50,[4],0.0091 µM
"CCCN(C)c1nc(N)nc2c1ncn2[C@@H]1O[C@H](CO)[C@@H](O)[C@@]1(C)F [Compound 19, (2R,3R,4R,5R)-5-(2-amino-6-(N-methyl-propylamino)-9H-purin-9-yl)-4-fluoro-2-(hydroxymethyl)-4-methyltetrahydrofuran-3-ol]",CC50 at 72 h,[3],> 100 µM
same,EC50,[4],7.47 µM
"CNc1nc(NC(=O)C(C)C)nc2c1ncn2[C@@H]1O[C@H](CO)[C@@H](O)[C@@]1(C)F [Compound 15, (2R,3R,4R,5R)-5-(2-isobutyramido-6-methylamino-9H-purin-9-yl)-4-fluoro-2-(hydroxymethyl)-4-methyltetrahydrofuran-3-ol]",CC50 at 72 h,[3],> 100 µM
same,EC50,[4],> 100 µM
"CN(c1nc(N)nc2c1ncn2[C@@H]1O[C@H](CO)[C@@H](O)[C@@]1(C)F)C1CC1 [Compound 8, (2R,3R,4R,5R)-5-(2-Amino-6-(N-methyl-cyclopropylamino)-9H-purin-9-yl)-4-fluoro-2-(hydroxymethyl)-4-methyltetrahydrofuran-3-ol]",CC50 at 72 h,[3],> 100 µM
same,EC50,[4],5.56 µM
